Test results reported in patent US12729377B2, “RNAi agents and compositions for inhibiting expression of angiopoietin-like 3 (ANGPTL3), and methods of use” (Arrowhead Pharmaceuticals, Inc., priority 2017, dated 2026).
In the oligonucleotide strings, read from the 5' end, every base follows the letter of its sugar. An asterisk marks phosphorothioate; unmarked linkages are phosphodiester. Other units and linkages are bracketed, terminal groups are in braces. A string of capitals states the bases alone. {NAG37} = tridentate N-acetyl-galactosamine targeting ligand, structure (NAG37)s; [invAb] = inverted abasic unit; m = 2'-O-methyl; f = 2'-fluoro

Tests used:
ANGPTL3 protein = assay: Example 6: serum ANGPTL3 protein by ELISA in mice; assay type: in vivo, C57bl/6 mice; details: for Avg ANGPTL3, normalized to pre-treatment and control: 0.5 mg/kg single SC injection on day 1, serum, n=3
Method: (§1) To assess the in vivo activity of additional ANGPTL3 RNAi agents that are designed to target position 304 on the ANGPTL3 gene, six- to eight-week-old female C57bl/6 mice were used. Pre-dose serum samples were taken at day −1 after a four hour fast. At day 1, each mouse was given a single subcutaneous administration of 200 μl containing 0.5 mg/kg (mpk) of an ANGPTL3 RNAi agent in D5W (dextrose in 5% water), or control (D5W) with no RNAi agent, according to the dosing groups recited in Table 25.
(§2) Each of the RNAi agents included a modified sequence and an N-acetyl-galactosamine-containing targeting ligand conjugated to the 5′ terminal end of the sense strand. (See Tables 3, 4, and 5 for modified sequences and targeting ligand structures). The injections were performed between the skin and muscle (i.e. subcutaneous injections) into the loose skin over the neck and shoulder area. Three (3) mice in each group were tested (n=3). Serum was collected on days 8, 15, 22, 30, and on day 43 for certain groups (i.e., Groups 1, 2, 5, and 10 only). Mice were fasted for four hours prior to each collection. ANGPTL3 protein levels in serum were measured by ELISA assay (R&D Systems), according to the manufacturer's recommendations. Triglycerides, total cholesterol, high-density lipoprotein (HDL), and low-density lipoprotein (LDL) in serum were measured on a Cobas® Integra 400 (Roche Diagnostics), according to the manufacturer's recommendations.
(§3) The ANGPTL3 protein levels, triglyceride levels, total cholesterol levels, HDL levels, and LDL levels for each animal were normalized. For normalization, the level of ANGPTL3 protein, triglyceride, HDL, and total cholesterol, respectively, for each animal at a time point, was divided by the pre-treatment level of expression in that animal (in this case at day −1) to determine the ratio of expression “normalized to pre-treatment.” Expression at a specific time point was then normalized to the D5W control group by dividing the “normalized to pre-treatment” ratio for an individual animal by the mean “normalized to pretreatment” ratio of all mice in the D5W control group.

ANGPTL3 gene [1] = assay: Example 6: serum HDL in mice; assay type: in vivo, C57bl/6 mice
Method: as §1, §2, §3

ANGPTL3 gene [2] = assay: Example 14: RNAi agent and statin, serum LDL in LDLR knockout mice; assay type: in vivo, LDLR KO mice
From the text: To evaluate the effect of co-administration of RNAi agents and statins in a disease model, LDLR KO mice were commercially obtained (The Jackson Laboratory). For three weeks prior to the onset of the study, forty-one (41) male 7 to 8 week old LDLR KO mice were placed on a high fat (“western”) diet (Teklad Custom Diets TD.88137), and remained on that diet throughout the duration of the study. Pre-dose serum samples were taken on study Day 1 after a four hour fast. The dosing regimen for the study is recited in the following Table 72:
• Mice were treated at 40 mg/kg for the first 11 days, then switched to 20 mg/kg thereafter.
The vehicle used for the oral gavage in the study was a 1:1 mixture of Ora-Plus®: Ora-Sweet® solution, which were acquired commercially. For the preparation of the atorvastatin oral gavage administrations, the respective desired dose of atorvastatin was first dissolved in sterile water (0.3 mL water per 1 mL of desired formulation) and vortexed until smooth, followed by the addition of a mixture of 1:1 Ora-Plus®: Ora-Sweet® solution (0.7 mL vehicle per 1 mL of desired formulation) and vortexed. On day 1 and for each day thereafter an oral gavage dose was administered for each of the Groups except for Group 2. On Day 23, Groups 1, 2, 3, and 4 received a single subcutaneous administration of 2.5 mg/kg dose ([…] solution) of an ANGPTL3 RNAi agent in D5W (dextrose in 5% water), or vehicle control (D5W) with no RNAi agent.
The RNAi agent tested (AD05488) included a modified sequence and an N-acetyl-galactosamine-containing targeting ligand conjugated to the 5′ terminal end of the sense strand. (See Tables 3, 4, and 5 for modified sequences and targeting ligand structures). The injections were performed between the skin and muscle (i.e. subcutaneous injections) into the loose skin over the neck and shoulder area. Serum was collected on days 8, 15, 22 (pre-RNAi agent injection), 29, 36, 43, and 50. LDLR KO mice were fasted for four hours prior to each collection.
ANGPTL3 protein levels in serum were measured by ELISA assay (R&D Systems), according to the manufacturer's recommendations. Among other biomarkers, triglycerides, total cholesterol, and low-density lipoprotein (LDL) in serum were measured on a Cobas® Integra 400 (Roche Diagnostics), according to the manufacturer's recommendations.
The ANGPTL3 protein levels, triglyceride levels, total cholesterol levels, HDL levels, and LDL levels for each animal were normalized. For normalization, respective levels of ANGPTL3 protein, TG, total cholesterol, or LDL for each animal at a time point was divided by the pre-treatment level of expression in that animal (in this case pre-dose levels on Day 1) to determine the ratio of expression “normalized to pre-treatment.” Data from the study set forth in this Example are shown in the following Tables 73-76: […]

Substance: AD05488: RNAi agent duplex: antisense AM07235-AS, sense AM07234-SS (antisense mU*fA*mC*fUmGfAmUfCmAfAmAfUmAfUmGfUmUfGmAfG*mC; sense {NAG37}*[invAb]*mGmCmUmCmAmAmCmAfUfAfUmUmUmGmAmUmCmAmGmUmA*[invAb])
- Avg ANGPTL3, normalized to pre-treatment and control (ANGPTL3 protein; Day 8): 0.221
- Avg ANGPTL3, normalized to pre-treatment and control (ANGPTL3 protein; Day 15): 0.272
- Avg ANGPTL3, normalized to pre-treatment and control (ANGPTL3 protein; Day 22): 0.254
- Avg ANGPTL3, normalized to pre-treatment and control (ANGPTL3 protein; Day 30): 0.381
- Avg ANGPTL3, normalized to pre-treatment and control (ANGPTL3 protein; Day 43): 0.475
- reduction in ANGPTL3 protein levels (ANGPTL3 protein; through at least day 22, single 0.5 mg/kg subcutaneous, C57bl/6 mice): substantial reduction
- Avg HDL, normalized to pre-treatment and control (ANGPTL3 gene [1]; Day 8, 0.5 mg/kg single SC injection on day 1, n=3): 0.783
- Avg HDL, normalized to pre-treatment and control (ANGPTL3 gene [1]; Day 15, 0.5 mg/kg single SC injection on day 1, n=3): 0.763
- Avg HDL, normalized to pre-treatment and control (ANGPTL3 gene [1]; Day 22, 0.5 mg/kg single SC injection on day 1, n=3): 0.793
- Avg HDL, normalized to pre-treatment and control (ANGPTL3 gene [1]; Day 30, 0.5 mg/kg single SC injection on day 1, n=3): 0.956
- Avg HDL, normalized to pre-treatment and control (ANGPTL3 gene [1]; Day 43, 0.5 mg/kg single SC injection on day 1, n=3): 1.088
- Avg LDL normalized to pre-treatment (ANGPTL3 gene [2]; Group 2: no gavage, 2.5 mg/kg AD05488 SC on day 23, Day 8 (pre-RNAi agent injection)): 0.893
- Avg LDL normalized to pre-treatment (ANGPTL3 gene [2]; Group 2: no gavage, 2.5 mg/kg AD05488 SC on day 23, Day 15 (pre-RNAi agent injection)): 1.051
- Avg LDL normalized to pre-treatment (ANGPTL3 gene [2]; Group 2: no gavage, 2.5 mg/kg AD05488 SC on day 23, Day 22 (pre-RNAi agent injection)): 1.113
- Avg LDL normalized to pre-treatment (ANGPTL3 gene [2]; Group 2: no gavage, 2.5 mg/kg AD05488 SC on day 23, Day 29): 0.653
- Avg LDL normalized to pre-treatment (ANGPTL3 gene [2]; Group 2: no gavage, 2.5 mg/kg AD05488 SC on day 23, Day 36): 0.492
- Avg LDL normalized to pre-treatment (ANGPTL3 gene [2]; Group 2: no gavage, 2.5 mg/kg AD05488 SC on day 23, Day 43): 0.443
- Avg LDL normalized to pre-treatment (ANGPTL3 gene [2]; Group 2: no gavage, 2.5 mg/kg AD05488 SC on day 23, Day 50): 0.480
- Avg LDL normalized to pre-treatment (ANGPTL3 gene [2]; Group 3: 10 mg/kg daily oral gavage atorvastatin, 2.5 mg/kg AD05488 on day 23, Day 8 (pre-RNAi agent injection)): 0.692
- Avg LDL normalized to pre-treatment (ANGPTL3 gene [2]; Group 3: 10 mg/kg daily oral gavage atorvastatin, 2.5 mg/kg AD05488 on day 23, Day 15 (pre-RNAi agent injection)): 0.537
- Avg LDL normalized to pre-treatment (ANGPTL3 gene [2]; Group 3: 10 mg/kg daily oral gavage atorvastatin, 2.5 mg/kg AD05488 on day 23, Day 22 (pre-RNAi agent injection)): 0.659
- Avg LDL normalized to pre-treatment (ANGPTL3 gene [2]; Group 3: 10 mg/kg daily oral gavage atorvastatin, 2.5 mg/kg AD05488 on day 23, Day 29): 0.422
- Avg LDL normalized to pre-treatment (ANGPTL3 gene [2]; Group 3: 10 mg/kg daily oral gavage atorvastatin, 2.5 mg/kg AD05488 on day 23, Day 36): 0.312
- Avg LDL normalized to pre-treatment (ANGPTL3 gene [2]; Group 3: 10 mg/kg daily oral gavage atorvastatin, 2.5 mg/kg AD05488 on day 23, Day 43): 0.264
- Avg LDL normalized to pre-treatment (ANGPTL3 gene [2]; Group 3: 10 mg/kg daily oral gavage atorvastatin, 2.5 mg/kg AD05488 on day 23, Day 50): 0.256
- Avg LDL normalized to pre-treatment (ANGPTL3 gene [2]; Group 4: 20 mg/kg* daily oral gavage atorvastatin (40 mg/kg first 11 days), 2.5 mg/kg AD05488 on day 23, Day 8 (pre-RNAi agent injection)): 0.572
- Avg LDL normalized to pre-treatment (ANGPTL3 gene [2]; Group 4: 20 mg/kg* daily oral gavage atorvastatin (40 mg/kg first 11 days), 2.5 mg/kg AD05488 on day 23, Day 15 (pre-RNAi agent injection)): 0.515
- Avg LDL normalized to pre-treatment (ANGPTL3 gene [2]; Group 4: 20 mg/kg* daily oral gavage atorvastatin (40 mg/kg first 11 days), 2.5 mg/kg AD05488 on day 23, Day 22 (pre-RNAi agent injection)): 0.755
- Avg LDL normalized to pre-treatment (ANGPTL3 gene [2]; Group 4: 20 mg/kg* daily oral gavage atorvastatin (40 mg/kg first 11 days), 2.5 mg/kg AD05488 on day 23, Day 29): 0.434
- Avg LDL normalized to pre-treatment (ANGPTL3 gene [2]; Group 4: 20 mg/kg* daily oral gavage atorvastatin (40 mg/kg first 11 days), 2.5 mg/kg AD05488 on day 23, Day 36): 0.240
- Avg LDL normalized to pre-treatment (ANGPTL3 gene [2]; Group 4: 20 mg/kg* daily oral gavage atorvastatin (40 mg/kg first 11 days), 2.5 mg/kg AD05488 on day 23, Day 43): 0.217
- Avg LDL normalized to pre-treatment (ANGPTL3 gene [2]; Group 4: 20 mg/kg* daily oral gavage atorvastatin (40 mg/kg first 11 days), 2.5 mg/kg AD05488 on day 23, Day 50): 0.242
- total reductions in LDL (ANGPTL3 gene [2]; co-administration of atorvastatin and RNAi agent (Groups 3 and 4), LDLR KO mice on high fat diet): ~ 80%
